What was measured:
Format in all cases: in vivo
Globodera pallida J2s [1] = assay: Tomato invasion assay, G. pallida J2s; conditions: exogenous pre-treatment of J2s
Method: (§1) Predicted uNLPs from both M. incognita and G. pallida were synthesised by EZBiolab and dissolved into pH adjusted ddH2O to make a 5 mM stock which was aliquoted and stored at −20° C. J2s of both M. incognita and G. pallida were incubated for 24 hours in 200 μl of each peptide in a 24 well plate (SPL Lifesciences, South Korea) at a defined concentration.
(§2) Tomato seeds were sterilised with 2.5% NaOCl for 15 minutes, washed 5 times in ddH2O and germinated on 0.5% Murashige and Skoog plates at 23° C. […] Invasion assays were performed by mixing 500 pre-treated M. incognita or G. pallida J2s with agar slurry and a single tomato seedling (2 days post germination) in a 6 well plate. Assays were left at 23° C. for 24 hours in the case of M. incognita and at 18° C. for 24 hours in the case of G. pallida under a 16 hour light and 8 hour darkness cycle. Seedlings were stained using acid fuschin [69] and the number of nematodes within the roots counted.

Globodera pallida J2s [2] = assay: B. subtilis and C. reinhardtii plant protection assay, G. pallida; conditions: tomato
Method: as §2
B. subtilis were grown overnight in LB media containing ampicillin (100 μg/ml) at 37° C. with shaking, and harvested in the log phase of growth determined by measuring OD600nm. Five ml of culture at 0.5 OD was spun down and the pellet mixed with 3 ml of agar slurry and 500 J2s from either G. pallida or M. incognita. C. reinhardtii clones were grown at 23° C. with shaking, cultures in the log phase were measured at OD750 and 5 ml of culture at 0.5 OD was pelleted by centrifugation. C. reinhardtii pellets were mixed with 3 ml of agar slurry and 500 J2s from either G. pallida or M. incognita. Plant invasion assays were performed as described above. […]

[3] = system: Meloidogyne incognita J2s; assay: B. subtilis and C. reinhardtii plant protection assay, M. incognita; conditions: tomato
Method: as §2
B. subtilis were grown overnight in LB media containing ampicillin (100 μg/ml) at 37° C. with shaking, and harvested in the log phase of growth determined by measuring OD600nm. Five ml of culture at 0.5 OD was spun down and the pellet mixed with 3 ml of agar slurry and 500 J2s from either G. pallida or M. incognita. C. reinhardtii clones were grown at 23° C. with shaking, cultures in the log phase were measured at OD750 and 5 ml of culture at 0.5 OD was pelleted by centrifugation. C. reinhardtii pellets were mixed with 3 ml of agar slurry and 500 J2s from either G. pallida or M. incognita. Plant invasion assays were performed as described above.
uNLP secretion inserts, and vector pChlamy_3 were digested using Kpnl/Xbal (New England Biolabs, USA), ligated using T4 ligase (New England Biolabs, USA), and cloned into Escherichia coli One Shot® TOP10 chemically competent cells (Life Technologies, USA) following manufacturer's instructions. Ampicillin (Sigma Aldrich, USA) was used to select E. coli containing the pChlamy_3 plasmid, which was subsequently extracted using the High Pure Plasmid Isolation Kit (Roche) and sequenced (Eurofins Genomics, UK) to identify correct clones. C. reinhardtii was transformed by electroporation following manufacturer's instructions (GeneArt® Chlamydomonas Engineering Kit, Life Technologies) and individual colonies grown on TAP-Agar-Hygromycin plates (10 μg/mL) (Sigma Aldrich, USA) at 23° C. Colonies were picked and grown at 23° C. in 100 ml TAP growth media (Invitrogen, USA) with constant orbital agitation. qRT-PCR was performed to identify clones with the highest level of uNLP expression, which were then selected for downstream assays (pChlamy universal FWD: […], nlp-15b REV: CTACTAGTCGAGGCCGGTA; Mi-nlp-9f REV: GAACGGGCGGATGAAGTAG).
uNLP secretion inserts, and vector pBE-S were digested using Xbal/Mlul (New England Biolabs, USA), ligated using T4 ligase (New England Biolabs, USA), and cloned into E. coli One Shot® TOP10 chemically competent cells (Life Technologies, USA) following manufacturer's instructions. […]

[4] = system: Meloidogyne incognita J2s; assay: Tomato invasion assay, M. incognita J2s
Method: as §1, §2

[5] = system: Steinernema carpocapsae infective juveniles; assay: S. carpocapsae host-finding assay (non-target nematode); conditions: S. carpocapsae IJs, 100 μM, 24 h; no statistically significant impact; control 0.2315
Method: S. carpocapsae were cultured in Galleria mellonella at 23° C. Infective juveniles (IJs) were collected using a White trap in PBS. Freshly emerged IJs were used for each assay. 100 IJs were incubated for 24 hours in 100 μM of selected uNLPs, and host-finding assays performed as in Morris et al..

[6] = system: Globodera pallida infective stage juveniles (J2s); assay: Chemosensory (chemotaxis) assay towards root exudate, G. pallida J2s; conditions: 100 μM uNLP, 24 h, mean+/-SEM
Method: as §1
(§3) A 60 mm Petri dish was divided into two segments, a positive and a negative side, with a 0.5 cm ‘dead zone’ either side of the centre point. The petri dish was filled with 15 ml of 0.25% w/v agar which was allowed to solidify. 3 ml of 0.25% w/v agar slurry in spring water (pH 7, agitated with a magnetic stirrer for several hours to give a smooth consistency) was added to the petri dish and spread evenly over the surface. Root diffusate (attractant) and water only (control) 0.25% agar plugs were embedded in the agar slurry, either side of the assay arena. Root diffusate was collected from 10 tomato plants, aged 3-6 weeks in 1 litre pots, by pouring 500 ml of ddH2O through the soil three times. Diffusate from each plant was combined, filter sterilised and stored at 4° C. for a maximum of 1 month. Root diffusate agar plugs were made by melting 1.25% agar in ddH2O, cooling to 50° C. before mixing with 4 parts of root diffusate. The agar was then allowed to solidify at room temperature. 100 uNLP pre-treated M. incognita or G. pallida J2s were added by pipette to the centre of the plate. J2s which moved out of the ‘dead zone’ after 3 hours were counted and their location (+/−) scored. The distribution of J2s were used to create a chemotaxis index for each plate, which formed one replicate, a total of 10 replicates where completed for each uNLP treatment.

[7] = system: Meloidogyne incognita infective stage juveniles (J2s); assay: Chemosensory (chemotaxis) assay towards root exudate, M. incognita J2s; conditions: for chemotaxis index (Cl) towards root exudate: M. incognita J2s
Method: as §1, §3

[8] = Mi-NLP-15b 100 μM, 24 h (dilution series)

SFDSFTGPGFTGLD [Mi-NLP-15b]
effect of exogenous peptide exposure on G. pallida host invasion (in words) (Globodera pallida J2s [1]): does not inhibit host invasion | G. pallida invasion relative to control groups (Globodera pallida J2s [2]; B. subtilis secreting the uNLP): 51.98%+/−13.29 | G. pallida invasion relative to controls (Globodera pallida J2s [2]; C. reinhardtii expressing the uNLP): 30.95%+/−9.021 | M. incognita invasion relative to control ([3]; B. subtilis cultures secreting the uNLP): 26.63%+/−8.12 | M. incognita invasion relative to untransformed C. reinhardtii ([3]; C. reinhardtii cultures secreting the uNLP): 10.82%+/−6.574 | host invasion compared to controls ([4]; 100 μM uNLP, 24 h, tomato seedlings, normalised to negative control): 32.22%+/−8.122 | J2 invasion relative to control ([4]; Mi-NLP-15b 100 nM, 24 h): 69.9%+/−10.66 | J2 invasion relative to control ([4]; Mi-NLP-15b 1 μM, 24 h): 59.05%+/−8.545 | J2 invasion relative to control ([4]; Mi-NLP-15b 10 μM, 24 h): 54.62%+/−8.362 | J2 invasion relative to control [4, 8]: 35.06%+/−6.407 | insect host-finding index (Cl) towards Galleria mellonella [5]: 0.2225+/−0.043 | chemotaxis index (Cl) towards root exudate [6]: −0.04762+/−0.1983 | chemotaxis index (Cl) towards root exudate ([7]; 100 μM uNLP, 24 h, mean+/-SEM): −0.3408+/−0.2207 | chemotaxis index (Cl) towards root exudate ([7]; Mi-NLP-15b 100 pM, 24 h): 0.03117+/−0.1594 | chemotaxis index (Cl) towards root exudate ([7]; Mi-NLP-15b 1 nM, 24 h): −0.07105+/−0.1534 | chemotaxis index (Cl) towards root exudate ([7]; Mi-NLP-15b 10 nM, 24 h): −0.1741+/−0.1724 | chemotaxis index (Cl) towards root exudate ([7]; Mi-NLP-15b 100 nM, 24 h): −0.1195+/−0.1968 | chemotaxis index (Cl) towards root exudate ([7]; Mi-NLP-15b 1 μM, 24 h): −0.1344+/−0.1733 | chemotaxis index (Cl) towards root exudate ([7]; Mi-NLP-15b 10 μM as printed (last of the series, after 100 pM), 24 h): −0.1553+/−0.2642 | chemotaxis index (Cl) towards root exudate ([7]; Mi-NLP-15b 10 μM, 24 h (dilution series)): −0.03579+/−0.1504 | chemotaxis index (Cl) towards root exudate [7, 8]: −0.3782+/−0.07224 | lowest concentration inhibiting M. incognita chemosensation ([7]; serial dilution, 24 h exposure): 10 pM

Reference: US20200123208A1, “PEPTIDES AND NEMATICIDAL COMPOSITIONS” (priority 2017, published 2020)
